In patent EP0908183A1, “Dehydroepiandrosterone or derivatives thereof for increasing the content of hyaluronic acid in skin” (INSTITUTE FOR ADVANCED SKIN RESEARCH INC., priority 1997, dated 1999):

Columns and labels:
[1] = acute toxicity tests with mice; conditions: mouse, in vivo
From the text: It was confirmed that dehydroepiandrosterone (DHEA), which is used as an active ingredient in the present invention, was effective in increasing the hyaluronic acid content of skin to prevent and treat the symptoms of aging of skin. It was also confirmed that dehydroepiandrosterone was effective in inhibiting scar formation during the healing of an injury to skin. In addition, unlike retinoic acid which is teratogenic and estrogens that induce cardiovascular disorders, DHEA in its stable sulfate form has been commercialized as a drug that aids the process of childbirth and is used in clinical applications.

[2] = system: content of hyaluronic acid in skin; test: content of hyaluronic acid in skin of aging mice after application to dorsal skin; type: in vivo; conditions: aging mice Balb/c; for efficacy in increasing the content of hyaluronic acid in skin when combined with alimidex: DHEA administered simultaneously with aromatase inhibitor alimidex
From the text: Dehydroepiandrosterone (DHEA) as an ethanol solution at a concentration of 10^-1M was applied to skin of the dorsal part of aging mice (Balb/c, 48 weeks old, in each group consisting of 6 animals) for 5 weeks.
To evaluate the reproducibility of its efficacy, DHEA was applied in various concentrations of 10^-1, 10^-2 and 10^-3M to aging mice (Balb/c, 53 weeks, in each group consisting of 8 animals). Further, in order to see whether DHEA became effective only after it was metabolized to estrodiol, alimidex that inhibited aromatase, which is an enzyme for causing a conversion to estrogens, was administered simultaneously with DHEA. […] This means the concentration of DHEA can be lowered to a tenth of the initial value.

Compound	LD50 ([1]; iv, injected intravenously)	LD50 ([1]; po, peroral)	LD50 ([1]; sc, injected subcutaneously)	content of hyaluronic acid in skin ([2]; 10^-1M, 53 weeks, reproducibility experiment, Fig. 2)	content of hyaluronic acid in skin ([2]; 10^-2M, 53 weeks, reproducibility experiment, Fig. 2)	efficacy in increasing the content of hyaluronic acid in skin when combined with alimidex ([2]; 53 weeks, Fig. 2)	efficacy in increasing the content of hyaluronic acid in skin when combined with alimidex ([2]; 53 weeks, Fig. 2, listed as dehydroepiandrosterone)	content of hyaluronic acid in skin ([2]; ethanol solution 10^-1M applied to dorsal skin for 5 weeks, 48 weeks old, vs control group, Fig. 1)	content of hyaluronic acid in skin ([2]; aromatase inhibitor applied alone, 53 weeks, Fig. 2)
C[C@]12CC[C@H](O)CC1=CC[C@@H]1[C@@H]2CC[C@]2(C)C(=O)CC[C@@H]12 [DHEA, dehydroepiandrosterone]	274 mg/kg	≥ 10000 mg/kg	899 mg/kg	statistically significant increase	statistically significant increase	not suppressed	not lowered	increased the content of hyaluronic acid in skin with a statistically significant difference from the control group	
CC(C)(C#N)c1cc(Cn2cncn2)cc(C(C)(C)C#N)c1 [alimidex, reference compound]									no ability to increase the content of hyaluronic acid
